# Measurements reported in article PMC6704710, “Preclinical evaluation of 3D185, a novel potent inhibitor of FGFR1/2/3 and CSF-1R, in FGFR-dependent and macrophage-dominant cancer models” (Journal of Experimental & Clinical Cancer Research : CR, 2019).
# Legend:
# GSK3β(h) = molecular target: T1, GSK3β(h) (Homo sapiens, UniProt P49841); assay: Eurofins kinase panel; assay type: biochemical; details: read-out: Inhibition rate (%)
# T1 construct: purchased Eurofins (KinaseProfiler)
# EphA2(h) = molecular target: T2, EphA2(h) (Homo sapiens, UniProt P29317); assay: Eurofins kinase panel; assay type: biochemical; details: read-out: Inhibition rate (%)
# T2 construct: purchased Eurofins (KinaseProfiler)
# DRAK1(h) = molecular target: T3, DRAK1(h) (Homo sapiens, UniProt Q9UEE5); assay: Eurofins kinase panel; assay type: biochemical; details: read-out: Inhibition rate (%)
# T3 construct: purchased Eurofins (KinaseProfiler)
# T3 sequence (Q9UEE5 1-414): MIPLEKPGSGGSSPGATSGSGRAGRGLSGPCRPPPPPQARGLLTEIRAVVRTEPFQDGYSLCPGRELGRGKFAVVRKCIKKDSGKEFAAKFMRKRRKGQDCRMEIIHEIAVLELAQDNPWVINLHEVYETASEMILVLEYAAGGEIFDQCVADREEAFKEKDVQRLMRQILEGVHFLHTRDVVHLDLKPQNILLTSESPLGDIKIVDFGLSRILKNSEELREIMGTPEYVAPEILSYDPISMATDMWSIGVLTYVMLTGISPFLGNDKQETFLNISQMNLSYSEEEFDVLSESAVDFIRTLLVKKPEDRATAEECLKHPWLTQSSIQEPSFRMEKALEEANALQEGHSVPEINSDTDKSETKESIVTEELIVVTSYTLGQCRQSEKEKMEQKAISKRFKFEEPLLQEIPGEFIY
# BMDM (CSF-1) = assay: Macrophage survival (CCK-8); assay type: cell-based, murine; details: Mus musculus, BMDM, 168 h; 7 days, mean ± SD
# Protocol: Murine bone marrow and human monocytes were stimulated with CSF-1 for 7 days together with the indicated inhibitor, and cell viability was evaluated by the CCK-8 assay. The IC50 values are shown as the mean ± SD (nM) from two independent tests. B-E, To test the impact of 3D185 on the polarization of CSF-1-induced macrophages, murine bone marrow cells and human monocytes were induced to mature into macrophages with CSF-1 for 7 days and then stimulated with CSF-1, IL-4 and IL-13 for an additional 48 h. The expression of the markers MHC-II (b), CD86 (c), and CD206 (d) on induced murine macrophages and CD206 expression on induced human macrophages (e) were determined by flow cytometry, and the mean fluorescence intensity (MFI) was analyzed with FlowJo. Representative data from two independent experiments. f Murine bone marrow cells (left panel) and human monocytes (right panel) were induced to mature into macrophages with CSF-1 for 7 days and then stimulated with CSF-1, IL-4 and IL-13 and treated with vehicle or the indicated inhibitor for an additional 48 h. Then, all cells were collected to count viable cells by staining with trypan blue
# Murine bone marrow-derived macrophages (BMDMs) and PBMCs were used for cell viability studies. BMDMs were harvested by flushing the tibias and femurs of 6- to 8-week-old C57BL/6 mice and depleting red blood cells (RBCs) by RBC lysis (Biogems). For BMDM survival, the cells were cultured for 7 days in RPMI 1640 containing 10% fetal bovine serum (FBS), 100 U/mL penicillin, 100 μg/mL streptomycin and 100 ng/mL mouse CSF-1 (or CSF-2) with or without the tested compounds. PBMCs were obtained from HemaCare and cultured for 7 days in RPMI 1640 containing 10% fetal bovine serum (FBS), 100 U/mL penicillin, 100 μg/mL streptomycin and 100 ng/mL human CSF-1 (or CSF-2) with or without the tested compounds. Cell viability was measured using the CCK-8 assay. For IL-4/IL-13-induced macrophage survival analysis, viable cells were counted by trypan blue exclusion.
# PRAK(h) = molecular target: T4, PRAK(h) (Homo sapiens, UniProt Q8IW41); assay: Eurofins kinase panel; assay type: biochemical; details: read-out: Inhibition rate (%)
# T4 construct: purchased Eurofins (KinaseProfiler)
# T4 sequence (Q8IW41 1-473): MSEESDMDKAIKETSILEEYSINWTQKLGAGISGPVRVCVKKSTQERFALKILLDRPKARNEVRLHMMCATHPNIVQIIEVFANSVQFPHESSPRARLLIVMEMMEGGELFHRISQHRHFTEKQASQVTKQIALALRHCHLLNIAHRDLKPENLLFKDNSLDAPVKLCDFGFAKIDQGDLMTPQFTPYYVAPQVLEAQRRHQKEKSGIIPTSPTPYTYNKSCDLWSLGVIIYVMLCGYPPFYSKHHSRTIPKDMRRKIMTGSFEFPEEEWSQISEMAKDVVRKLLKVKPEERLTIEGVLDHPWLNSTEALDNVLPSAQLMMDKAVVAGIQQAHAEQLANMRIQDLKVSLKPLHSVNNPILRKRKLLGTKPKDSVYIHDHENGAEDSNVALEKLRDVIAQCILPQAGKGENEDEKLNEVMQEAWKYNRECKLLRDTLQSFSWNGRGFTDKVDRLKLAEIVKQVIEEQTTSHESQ
# CDK12/cyclinK(h) = molecular target: T5, CDK12/cyclinK(h) (Homo sapiens, UniProt Q9NYV4); assay: Eurofins kinase panel; assay type: biochemical; details: read-out: Inhibition rate (%)
# T5 construct: purchased Eurofins (KinaseProfiler)
# Snk(h) = molecular target: T6, Snk(h) (Homo sapiens, UniProt Q9NYY3); assay: Eurofins kinase panel; assay type: biochemical; details: read-out: Inhibition rate (%)
# T6 construct: purchased Eurofins (KinaseProfiler)
# [1] = test system: ERK phosphorylation in NCI-H1581 tumors; assay: Pharmacodynamic study, intratumoral p-ERK; details: 6 h after single oral dose of 12.5, 25 or 50 mg/kg
# CDKL1(h) = molecular target: T7, CDKL1(h) (Homo sapiens, UniProt Q00532); assay: Eurofins kinase panel; assay type: biochemical; details: read-out: Inhibition rate (%)
# T7 construct: purchased Eurofins (KinaseProfiler)
# DAPK1(h) = molecular target: T8, DAPK1(h) (Homo sapiens, UniProt P53355); assay: Eurofins kinase panel; assay type: biochemical; details: read-out: Inhibition rate (%)
# T8 construct: purchased Eurofins (KinaseProfiler)
# ErbB4(h) = molecular target: T9, ErbB4(h) (Homo sapiens, UniProt Q15303); assay: Eurofins kinase panel; assay type: biochemical; details: read-out: Inhibition rate (%)
# T9 construct: purchased Eurofins (KinaseProfiler)
# T9 sequence (Q15303 26-1308): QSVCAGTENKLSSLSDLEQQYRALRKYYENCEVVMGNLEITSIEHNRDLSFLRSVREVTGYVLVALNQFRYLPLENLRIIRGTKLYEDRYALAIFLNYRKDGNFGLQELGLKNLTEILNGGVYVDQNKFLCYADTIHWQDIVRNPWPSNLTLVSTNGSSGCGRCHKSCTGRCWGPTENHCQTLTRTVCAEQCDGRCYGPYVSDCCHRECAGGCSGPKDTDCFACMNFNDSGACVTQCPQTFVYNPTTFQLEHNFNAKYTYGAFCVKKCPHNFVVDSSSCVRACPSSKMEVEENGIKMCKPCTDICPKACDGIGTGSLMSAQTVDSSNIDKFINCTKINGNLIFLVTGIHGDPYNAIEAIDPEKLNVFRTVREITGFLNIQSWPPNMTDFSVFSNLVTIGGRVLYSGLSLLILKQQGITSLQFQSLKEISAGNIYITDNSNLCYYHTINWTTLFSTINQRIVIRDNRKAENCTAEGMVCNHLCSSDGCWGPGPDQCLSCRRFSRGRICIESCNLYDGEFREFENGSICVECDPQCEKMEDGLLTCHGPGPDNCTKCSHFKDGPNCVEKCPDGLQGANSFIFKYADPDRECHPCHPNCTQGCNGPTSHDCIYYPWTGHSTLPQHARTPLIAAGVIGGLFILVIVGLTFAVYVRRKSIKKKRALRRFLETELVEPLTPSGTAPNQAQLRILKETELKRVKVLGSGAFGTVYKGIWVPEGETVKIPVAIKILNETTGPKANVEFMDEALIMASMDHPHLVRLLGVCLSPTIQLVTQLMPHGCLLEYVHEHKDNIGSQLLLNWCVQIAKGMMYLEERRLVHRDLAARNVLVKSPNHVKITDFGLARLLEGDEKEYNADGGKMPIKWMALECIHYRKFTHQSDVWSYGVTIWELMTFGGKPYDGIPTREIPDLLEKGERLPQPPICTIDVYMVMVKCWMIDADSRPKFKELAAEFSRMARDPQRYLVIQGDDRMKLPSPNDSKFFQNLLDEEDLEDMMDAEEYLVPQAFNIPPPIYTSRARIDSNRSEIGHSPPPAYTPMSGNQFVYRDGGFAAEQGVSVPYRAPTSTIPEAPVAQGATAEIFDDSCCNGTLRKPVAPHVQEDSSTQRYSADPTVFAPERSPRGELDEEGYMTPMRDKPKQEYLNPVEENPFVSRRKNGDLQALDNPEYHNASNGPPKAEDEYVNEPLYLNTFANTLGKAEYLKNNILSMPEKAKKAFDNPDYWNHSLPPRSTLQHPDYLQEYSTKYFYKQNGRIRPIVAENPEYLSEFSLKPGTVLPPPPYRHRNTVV
# T6 sequence (Q9NYY3 whole entry): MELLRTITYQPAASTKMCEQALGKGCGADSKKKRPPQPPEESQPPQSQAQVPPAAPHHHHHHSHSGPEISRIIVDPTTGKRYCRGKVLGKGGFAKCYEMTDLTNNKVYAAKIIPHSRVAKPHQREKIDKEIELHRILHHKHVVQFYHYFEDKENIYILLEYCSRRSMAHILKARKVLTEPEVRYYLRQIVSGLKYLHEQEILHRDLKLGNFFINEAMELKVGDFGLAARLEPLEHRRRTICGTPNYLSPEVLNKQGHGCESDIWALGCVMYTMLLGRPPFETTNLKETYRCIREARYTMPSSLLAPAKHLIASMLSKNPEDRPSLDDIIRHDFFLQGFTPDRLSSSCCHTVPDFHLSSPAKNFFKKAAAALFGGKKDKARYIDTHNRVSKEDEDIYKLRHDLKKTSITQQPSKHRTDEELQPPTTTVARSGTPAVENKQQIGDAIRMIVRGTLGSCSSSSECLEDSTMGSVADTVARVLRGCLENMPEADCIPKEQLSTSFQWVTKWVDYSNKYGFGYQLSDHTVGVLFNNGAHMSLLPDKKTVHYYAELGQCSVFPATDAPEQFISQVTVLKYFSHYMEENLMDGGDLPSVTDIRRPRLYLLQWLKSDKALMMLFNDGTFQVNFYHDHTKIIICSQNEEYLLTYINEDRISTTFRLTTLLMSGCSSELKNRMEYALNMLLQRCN
# T8 sequence (P53355 whole entry): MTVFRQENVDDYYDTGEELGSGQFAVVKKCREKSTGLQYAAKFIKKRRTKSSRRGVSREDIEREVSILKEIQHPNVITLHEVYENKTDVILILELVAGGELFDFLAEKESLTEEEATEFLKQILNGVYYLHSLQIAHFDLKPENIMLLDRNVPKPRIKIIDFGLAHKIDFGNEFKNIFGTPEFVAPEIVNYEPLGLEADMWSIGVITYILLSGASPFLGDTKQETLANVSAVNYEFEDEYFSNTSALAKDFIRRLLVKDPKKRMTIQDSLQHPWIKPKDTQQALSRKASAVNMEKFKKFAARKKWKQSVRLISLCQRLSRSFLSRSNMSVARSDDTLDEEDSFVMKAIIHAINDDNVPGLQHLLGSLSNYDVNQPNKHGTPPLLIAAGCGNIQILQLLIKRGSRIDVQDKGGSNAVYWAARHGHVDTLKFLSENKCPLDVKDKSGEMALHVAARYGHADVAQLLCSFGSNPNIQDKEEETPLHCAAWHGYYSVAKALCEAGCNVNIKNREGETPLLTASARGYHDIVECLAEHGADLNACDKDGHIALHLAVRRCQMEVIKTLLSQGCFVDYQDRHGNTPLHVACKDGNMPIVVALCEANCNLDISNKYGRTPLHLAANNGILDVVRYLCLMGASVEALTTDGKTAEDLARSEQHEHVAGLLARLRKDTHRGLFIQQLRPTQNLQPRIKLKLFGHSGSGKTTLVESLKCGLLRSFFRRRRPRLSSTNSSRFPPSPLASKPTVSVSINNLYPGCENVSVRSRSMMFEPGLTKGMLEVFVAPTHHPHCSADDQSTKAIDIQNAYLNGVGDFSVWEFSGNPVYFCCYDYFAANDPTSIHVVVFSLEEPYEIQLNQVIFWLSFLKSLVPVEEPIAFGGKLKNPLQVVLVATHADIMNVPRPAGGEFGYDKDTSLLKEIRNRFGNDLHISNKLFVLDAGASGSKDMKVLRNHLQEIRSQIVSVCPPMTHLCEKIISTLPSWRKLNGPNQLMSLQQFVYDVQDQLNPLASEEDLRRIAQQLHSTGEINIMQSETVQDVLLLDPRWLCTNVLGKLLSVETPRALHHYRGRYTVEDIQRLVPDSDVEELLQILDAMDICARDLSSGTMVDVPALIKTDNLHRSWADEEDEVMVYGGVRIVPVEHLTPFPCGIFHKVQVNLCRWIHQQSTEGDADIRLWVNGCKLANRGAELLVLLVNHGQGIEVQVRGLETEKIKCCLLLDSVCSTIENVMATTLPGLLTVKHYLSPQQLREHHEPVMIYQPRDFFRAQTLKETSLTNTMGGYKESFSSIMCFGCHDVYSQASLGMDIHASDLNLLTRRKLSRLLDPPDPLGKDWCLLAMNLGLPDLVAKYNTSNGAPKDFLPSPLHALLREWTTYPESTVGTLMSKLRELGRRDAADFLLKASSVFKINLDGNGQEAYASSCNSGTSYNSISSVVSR
# T1 sequence (P49841 whole entry): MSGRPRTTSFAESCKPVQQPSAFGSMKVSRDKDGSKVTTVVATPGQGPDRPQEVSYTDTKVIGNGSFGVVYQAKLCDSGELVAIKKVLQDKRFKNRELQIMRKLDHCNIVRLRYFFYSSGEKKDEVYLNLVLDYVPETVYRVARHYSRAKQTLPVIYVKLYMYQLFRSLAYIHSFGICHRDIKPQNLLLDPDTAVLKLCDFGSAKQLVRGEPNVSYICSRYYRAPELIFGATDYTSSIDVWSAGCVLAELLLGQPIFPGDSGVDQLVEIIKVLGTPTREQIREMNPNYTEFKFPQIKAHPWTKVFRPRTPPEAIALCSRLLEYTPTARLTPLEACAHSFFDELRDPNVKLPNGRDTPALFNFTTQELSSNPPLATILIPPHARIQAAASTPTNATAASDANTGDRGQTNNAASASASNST
# T7 sequence (Q00532 whole entry): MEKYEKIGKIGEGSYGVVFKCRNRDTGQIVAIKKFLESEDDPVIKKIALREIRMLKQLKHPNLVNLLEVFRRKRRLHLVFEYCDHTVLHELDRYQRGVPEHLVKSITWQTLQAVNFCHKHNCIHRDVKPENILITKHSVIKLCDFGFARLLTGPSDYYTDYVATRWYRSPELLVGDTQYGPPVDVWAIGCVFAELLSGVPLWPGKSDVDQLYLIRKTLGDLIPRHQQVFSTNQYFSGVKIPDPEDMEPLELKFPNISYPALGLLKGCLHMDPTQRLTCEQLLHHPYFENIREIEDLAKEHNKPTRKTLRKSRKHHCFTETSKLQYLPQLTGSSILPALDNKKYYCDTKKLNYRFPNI
structure (smiles),measurement,setting,value
COc1cc(OC)c(Cl)c(-c2ccc3c(NC(=O)c4ccc(N5CCNC(C)(C)C5)cc4)n[nH]c3n2)c1Cl [3D185],inhibition at 0.01 µM,GSK3β(h); 10 nM,0%
same,inhibition at 0.1 µM,GSK3β(h); 100 nM,5%
same,inhibition at 1 µM,GSK3β(h); 1000 nM,-5%
same,inhibition at 0.01 µM,EphA2(h); 10 nM,13%
same,inhibition at 0.1 µM,EphA2(h); 100 nM,24%
same,inhibition at 1 µM,EphA2(h); 1000 nM,73%
same,inhibition at 0.01 µM,DRAK1(h); 10 nM,-4%
same,inhibition at 0.1 µM,DRAK1(h); 100 nM,7%
same,inhibition at 1 µM,DRAK1(h); 1000 nM,14%
same,IC50,BMDM (CSF-1),57.8 nM
same,inhibition at 0.01 µM,PRAK(h); 10 nM,-18%
same,inhibition at 0.1 µM,PRAK(h); 100 nM,-24%
same,inhibition at 1 µM,PRAK(h); 1000 nM,-10%
same,inhibition at 0.01 µM,CDK12/cyclinK(h); 10 nM,-6%
same,inhibition at 0.1 µM,CDK12/cyclinK(h); 100 nM,4%
same,inhibition at 1 µM,CDK12/cyclinK(h); 1000 nM,7%
same,inhibition at 0.01 µM,Snk(h); 10 nM,0%
same,inhibition at 0.1 µM,Snk(h); 100 nM,-2%
same,inhibition at 1 µM,Snk(h); 1000 nM,10%
same,intratumoral ERK phosphorylation,[1],nearly complete inhibition of ERK phosphorylation
same,inhibition at 0.01 µM,CDKL1(h); 10 nM,3%
same,inhibition at 0.1 µM,CDKL1(h); 100 nM,-5%
same,inhibition at 1 µM,CDKL1(h); 1000 nM,0%
same,inhibition at 0.01 µM,DAPK1(h); 10 nM,5%
same,inhibition at 0.1 µM,DAPK1(h); 100 nM,13%
same,inhibition at 1 µM,DAPK1(h); 1000 nM,19%
same,inhibition at 0.01 µM,ErbB4(h); 10 nM,-2%
same,inhibition at 0.1 µM,ErbB4(h); 100 nM,-1%
same,inhibition at 1 µM,ErbB4(h); 1000 nM,28%
